Laboratory results from article PMC2644263 (Molecular cell, 2008).

Molecular target: Bub1 (Homo sapiens, UniProt O43683)
Assay: in vitro […] kinase assay with purified kinase, […] ATP, phosphoimager
Format: biochemical

Chain of Bub1 (O43683 724-1085): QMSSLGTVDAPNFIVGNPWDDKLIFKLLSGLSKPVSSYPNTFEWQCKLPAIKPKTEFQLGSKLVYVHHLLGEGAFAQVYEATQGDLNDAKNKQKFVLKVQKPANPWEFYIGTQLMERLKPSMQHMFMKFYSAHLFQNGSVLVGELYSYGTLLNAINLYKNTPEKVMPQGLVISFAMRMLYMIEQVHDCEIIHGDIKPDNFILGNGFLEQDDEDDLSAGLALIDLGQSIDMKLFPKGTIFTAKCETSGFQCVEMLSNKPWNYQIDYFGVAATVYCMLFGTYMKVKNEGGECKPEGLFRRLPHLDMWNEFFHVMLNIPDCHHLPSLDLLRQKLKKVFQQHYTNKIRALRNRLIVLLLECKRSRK

IC50: ~250 nM
SMILES: CC(C)(C)n1nc(Cc2ccccc2O)c2c(N)ncnc21 [2OH-BNPP1]
